Data from US20250281461A1 (The Board of Supervisors of Louisiana State University and …, priority 2021, published 2025).

Conditions: mouse, in vivo

Cc1ccc(NC(=O)c2ccc(CN3CCN(C)CC3)cc2)cc1Nc1nccc(-c2cccnc2)n1 [Imatinib]
no significant changes: serum ALT levels | serum AST levels | serum BUN levels

COC(=O)Nc1nc2ccc(C(=O)c3ccccc3)cc2[nH]1 [Mebendazole]
no significant changes: serum ALT levels | serum AST levels | serum BUN levels
